Laboratory results from publication PMC10564737, “Structure-based design of a phosphotyrosine-masked covalent ligand targeting the E3 ligase SOCS2” (Nature Communications, 2023).
Where “and” joins values, the source holds several entries; their conditions need not be identical. Equal values may be shown once.

Assays:
[1] = target: T1, HiBiT-SOCS2 fusion in HeLa cells (Homo sapiens, UniProt O14508); assay: Split-NanoLuc CETSA, live-cell mode; assay type: cell-based; parameters: Produrg CETSA screening, raw signal: reference not given here; settings: for ΔT / ΔT, individual replicates n1-n3: Prodrug screen CETSA; for ΔT: live HeLa cells, 50 μM, 20 h, Mean n = 3; for ΔT, individual replicates n1-n3: single replicates; for Produrg CETSA screening, raw signal: 50uM 20hrs
T1 construct: encoding SOCS2 (32–198) in pBiT3.1-N expression vector; expressed in transfected cells; host or cells: HeLa
T1 sequence (O14508 32-198): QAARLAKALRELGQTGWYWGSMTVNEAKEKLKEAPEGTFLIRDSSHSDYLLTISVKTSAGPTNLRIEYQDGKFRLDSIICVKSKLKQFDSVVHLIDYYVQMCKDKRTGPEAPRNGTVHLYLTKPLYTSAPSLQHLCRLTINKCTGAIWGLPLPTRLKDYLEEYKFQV
T1 sequence (Q15370 whole entry, further chain, the tested form may be a part): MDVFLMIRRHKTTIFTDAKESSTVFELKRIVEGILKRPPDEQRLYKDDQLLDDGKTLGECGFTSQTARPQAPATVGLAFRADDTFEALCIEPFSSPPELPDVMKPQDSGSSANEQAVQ
T1 sequence (Q15369 whole entry, further chain, the tested form may be a part): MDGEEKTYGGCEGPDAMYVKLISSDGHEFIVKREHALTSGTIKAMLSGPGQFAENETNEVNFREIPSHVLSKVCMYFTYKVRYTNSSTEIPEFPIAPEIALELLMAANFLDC
Experimental: One of the challenges with small-molecule binders displaying on-target activity with recombinant proteins, is to translate their utility to a cellular context. […] One of the advantages of CETSA is that target engagement can be monitored without the need for the development of a cell-permeable tracer molecule.
We utilized CETSA in a live-cell mode to evaluate the efficacy and rank the different prodrugs. We treated live HeLa cells with 50 μM compound (prodrugs) for 20 h and monitored Tagg shift as a proxy for the combo of prodrug permeability and unmasking (Fig. 4d). […] The observation could be because the POM group unmasking requires only esterase unlike the reliance of compounds 21–23 on esterase and phosphoramidase for unmasking an aryloxy phosphoramidate group.
N-terminal HiBiT-SOCS2 fusion was generated by encoding SOCS2 (32–198) in pBiT3.1-N expression vector (Promega). The transfection and target engagement assay were performed by modifying a NanoLuc target engagement protocol (Promega) with some small modifications. Briefly, HiBiT-SOCS2 fusion construct was transfected into HeLa cells using FuGENE HD (Promega) according to the manufacturer’s protocol. HiBiT-SOCS2 fusion construct was diluted into Transfection Carrier DNA (Promega) at a mass ratio of 1:100 or 1:10 for permeabilised and live-cell CETSA respectively. FuGENE HD was added at a ratio of 1:3 (μg DNA: μL FuGENE HD). 1 part (vol) of FuGENE HD complexes thus formed were combined with 20 parts (vol) of HeLa cells suspended at a density of 2 × 10^5 cells/mL, followed by incubation in a humidified, 37 °C + 5% CO2 incubator. After 20 h of incubation HeLa cells were detached and resuspended at a density of 2.5 × 10^5 cells/mL in Opti-MEM media without serum or phenol red but supplemented with protease inhibitor cocktail (Roche). Compounds stocks were added to cell suspension to maintain a final DMSO concentration of 1%. For the permeabilised assay format, 96-well PCR plates (Thermo) were pre-treated with digitonin to have a final well concentration of 50 μg/ml. 50 μl Opti-MEM cell suspension was then aliquoted to each well of the 96-well plate. The plates are then covered with microporous tape sheet (Qiagen) prior to incubation in a humidified, 37 °C + 5% CO2 incubator. Post-incubation we heat the PCR plates in 16-point temperature (split across two runs) curve spanning degrees 40-72 °C temperature span (CFX96 Touch Real-Time PCR Detection System, BioRad). The thermal cycler block was allowed to rise to the designated temperatures prior to placement of the PCR plates into the heating block and heat treatment for 3 min. After incubating the plates at room temperature for over 3 min, 50 μl of the Nano-Glo HiBiT Lytic mix (Promega) was added to each well. Samples were mixed by pipetting and placing the plate on an orbital shaker (600 rpm) for 5 min. 20 μl of the samples (in triplicates) were transferred to a AlphaPlate-384 plate (Perkin Elmer). Luminescence was recorded with GloMax Discover Microplate Reader (Promega). To generate apparent Tagg curves, the data is first converted to percent stabilized by relating the observed luminescence to the luminescence of the lowest temperature (40 °C) for that given sample. Data are then fitted to obtain apparent Tagg values using the Boltzmann Sigmoid equation using Graphpad Prism 9.

[2] = target: T2, SBC2 (Homo sapiens, UniProt O14508); assay: Covalent fluorescence polarization (FP) probe displacement assay; assay type: binding; settings: SBC2 titration with 10 nM probe; read-out: KD of fluorescent probe measured with FP
T2 construct: SOCS2 (amino acids 32–198); His6 (N, cleaved yes); made in house; host or cells: E. coli BL21(DE3)
T2 sequence (O14508 32-198): as the sequence (O14508 32-198) above
T2 sequence (Q15370 1-104 partner limits assumed): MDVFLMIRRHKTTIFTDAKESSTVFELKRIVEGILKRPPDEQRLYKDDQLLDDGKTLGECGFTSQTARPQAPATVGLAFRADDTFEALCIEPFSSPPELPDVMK
T2 sequence (Q15369 17-112 partner limits assumed): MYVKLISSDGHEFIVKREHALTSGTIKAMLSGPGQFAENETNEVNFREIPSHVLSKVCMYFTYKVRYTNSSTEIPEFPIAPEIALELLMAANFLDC
From the text: With the specific covalent modification of Cys111 established, we decided to fully characterize MN551 as a covalent SOCS2 inhibitor. […] (Fig. 2g, h, Supplementary Fig. 9). Due to the covalent nature of the competing inhibitor, a time-dependent reduction in the fraction of protein-bound probe is observed. […] This value illustrates reasonable specificity for a covalent inhibitor, with nonetheless scope for future optimization. In addition to characterizing the kinetic covalency parameters, we have also assessed the stability of the MN551 by monitoring its reactivity (half-life >70 min) with reduced glutathione (GSH) (Supplementary Fig. 10)[35].
To monitor the SBC2-ligand binding kinetics we designed a fluorescein-labeled small-molecule probe - compound 26. The fluorescence polarization (anisotropy) of a threefold serial dilution of 50 µM SBC2 in 10 nM of the probe in 100 mM HEPES pH 7.5, 50 mM NaCl, 0.5 mM TCEP, 2% DMSO was measured to determine the KL (Supplementary Fig. 9A) (BMG Labtech PHERAstar – firmware v1.33). Protein titration and the curves were fitted using GraphPad Prism 9, using one-site fitting models to determine the probe binding constant, KL. Samples were run in triplicate in 384 well plates, using a total volume per well of 16 μL. The bound fraction of the probe is measure using the equation:1 Fb=Af−A/Af−Ab Where,
A time-dependent reduction in probe anisotropy were measured for a 2-fold serial dilution of […] compound MN551 in 10 nM probe +300 μM SBC2. To determine the initial reversible binding affinity, the initial bound fraction of the probe at time = 0, Fbo (the y-intercept in Fb v/s Time plot, Supplementary Fig. 9B) was plotted against MN551 concentration, and the obtained IC50 is then converted to Ki (Supplementary Fig. 9C)[17]. The slope from Fb versus time graph when divided by Fbo gives rate of covalency, kobs. A plot of kobs v/s MN551 concentration using Michaelis–Menten model of GraphPad Prism 9, provides the parameters kinact (maximum potential rate of inactivation) and KI (concentration of MN551 at which kobs = kinact/2) (Supplementary Fig. 9D, E).
The observed first-order rate constant, kobs is related to KI and kinact by the equation:2 kobs=kinactI/KI+I
At [I]«[KI] the above equation is converted to3 […]
The slope from the plot of kobs against concentration of MN551 gives us the covalent efficiency parameter kinact/KI (Supp Fig. 9F)[30],[33].

## CC(C)OC(=O)[C@H](C)NP(=O)(Oc1ccc(C[C@H](NC(=O)Cc2ccc(F)cc2)C(=O)NCc2cccc(NC(=O)CCl)c2)cc1)Oc1cccc2ccccc12 (stereo partly drawn) [Compound 22]
[1]
  ΔT: 2.37 oC
  ΔT, individual replicates n1-n3: 2.11 oC and 3.40 oC and 1.59 oC

## COC(=O)[C@H](C)NP(=O)(Oc1ccc(C[C@H](NC(=O)Cc2ccc(F)cc2)C(=O)NCc2cccc(NC(=O)CCl)c2)cc1)Oc1cccc2ccccc12 (stereo partly drawn) [Compound 21]
[1]; n=1, temperature point 4 of 16, temperature not given
  Produrg CETSA screening, raw signal: 91803 and 91466 and 172287
[1]; n=1, temperature point 5 of 16, temperature not given
  Produrg CETSA screening, raw signal: 75745 and 107243 and 102225
[1]; n=1, temperature point 6 of 16, temperature not given
  Produrg CETSA screening, raw signal: 90752 and 132144 and 123125
[1]; n=1, temperature point 7 of 16, temperature not given
  Produrg CETSA screening, raw signal: 129001 and 137550 and 230259
[1]; n=1, temperature point 8 of 16, temperature not given
  Produrg CETSA screening, raw signal: 138976 and 169925 and 177765
[1]; n=1, temperature point 9 of 16, temperature not given
  Produrg CETSA screening, raw signal: 198178 and 192764 and 223087
[1]; n=1, temperature point 10 of 16, temperature not given
  Produrg CETSA screening, raw signal: 187698 and 251675 and 298741
[1]; n=1, temperature point 11 of 16, temperature not given
  Produrg CETSA screening, raw signal: 267213 and 290800 and 310548
[1]; n=1, temperature point 12 of 16, temperature not given
  Produrg CETSA screening, raw signal: 360938 and 373247 and 422856
[1]; n=1, temperature point 13 of 16, temperature not given
  Produrg CETSA screening, raw signal: 434129 and 461596 and 480477
[1]; n=1, temperature point 14 of 16, temperature not given
  Produrg CETSA screening, raw signal: 437890 and 471533 and 565224
[1]; n=1, temperature point 15 of 16, temperature not given
  Produrg CETSA screening, raw signal: 465739 and 467737 and 561619
[1]; n=1, temperature point 16 of 16, temperature not given
  Produrg CETSA screening, raw signal: 441792 and 461249 and 531619
[1]; n=2, temperature point 1 of 16, temperature not given
  Produrg CETSA screening, raw signal: 100426 and 115227 and 145975
[1]; n=2, temperature point 2 of 16, temperature not given
  Produrg CETSA screening, raw signal: 100401 and 85507 and 140649
[1]; n=2, temperature point 3 of 16, temperature not given
  Produrg CETSA screening, raw signal: 123706 and 103110 and 202648
[1]; n=2, temperature point 4 of 16, temperature not given
  Produrg CETSA screening, raw signal: 103160 and 69960 and 120366
[1]; n=2, temperature point 5 of 16, temperature not given
  Produrg CETSA screening, raw signal: 75996 and 86411 and 132074
[1]; n=2, temperature point 6 of 16, temperature not given
  Produrg CETSA screening, raw signal: 123683 and 120963 and 144901
[1]; n=2, temperature point 7 of 16, temperature not given
  Produrg CETSA screening, raw signal: 143611 and 177701 and 227556
[1]; n=2, temperature point 8 of 16, temperature not given
  Produrg CETSA screening, raw signal: 172997 and 193471 and 214613
[1]; n=2, temperature point 9 of 16, temperature not given
  Produrg CETSA screening, raw signal: 198669 and 236779 and 246686
[1]; n=2, temperature point 10 of 16, temperature not given
  Produrg CETSA screening, raw signal: 209139 and 261273 and 295556
[1]; n=2, temperature point 11 of 16, temperature not given
  Produrg CETSA screening, raw signal: 246514 and 287579 and 323688
[1]; n=2, temperature point 12 of 16, temperature not given
  Produrg CETSA screening, raw signal: 393463 and 428191 and 449673
[1]; n=2, temperature point 13 of 16, temperature not given
  Produrg CETSA screening, raw signal: 441856 and 476194 and 509704
[1]; n=2, temperature point 14 of 16, temperature not given
  Produrg CETSA screening, raw signal: 497788 and 532165 and 547547
[1]; n=2, temperature point 15 of 16, temperature not given
  Produrg CETSA screening, raw signal: 523691 and 513819 and 551344
[1]; n=2, temperature point 16 of 16, temperature not given
  Produrg CETSA screening, raw signal: 478273 and 472552 and 530261
[1]; n=3, Temp, 0C 62.3
  Produrg CETSA screening, raw signal: 20167
[1]; n=3, Temp, 0C 66.1
  Produrg CETSA screening, raw signal: 12666 and 19260 and 24872
[1]; n=3, Temp, 0C 69.3
  Produrg CETSA screening, raw signal: 18005 and 19840 and 24313
[1]; n=3, Temp, 0C 71.1
  Produrg CETSA screening, raw signal: 19926 and 19187 and 22421
[1]; n=3, Temp, 0C 72
  Produrg CETSA screening, raw signal: 14765 and 18884 and 20941
[1]
  ΔT: 0.60 oC
  ΔT, individual replicates n1-n3: 1.03 oC and -0.02 oC and 0.80 oC

## Cc1cc(CNC(=O)[C@H](Cc2ccc(OP(=O)(O)O)cc2)NC(=O)Cc2ccc(F)cc2OCCNC(=S)Nc2ccc3c(c2)C(=O)OC32c3ccc(O)cc3Oc3cc(O)ccc32)ccc1Cl [Compound 26]
[2]
  Kd: 77.6 nM
